Experimental findings from ChEMBL document CHEMBL5126528, “Recent strategies targeting Embryonic Ectoderm Development (EED) for cancer therapy: Allosteric inhibitors, PPI inhibitors, and PROTACs” (Eur J Med Chem, 2022) are described below.

Assay [1] concerns the target T1, von Hippel-Lindau disease tumor suppressor/Polycomb protein EED (Homo sapiens, UniProt O75530+P40337). The experiment in a line: Protac activity at VHL/EED in human HeLa cells assessed as degradation of protein measured after 24 hrs by Bradford assay kit method. Type of assay: cell-based.
Target sequence in this assay (O75530 whole entry): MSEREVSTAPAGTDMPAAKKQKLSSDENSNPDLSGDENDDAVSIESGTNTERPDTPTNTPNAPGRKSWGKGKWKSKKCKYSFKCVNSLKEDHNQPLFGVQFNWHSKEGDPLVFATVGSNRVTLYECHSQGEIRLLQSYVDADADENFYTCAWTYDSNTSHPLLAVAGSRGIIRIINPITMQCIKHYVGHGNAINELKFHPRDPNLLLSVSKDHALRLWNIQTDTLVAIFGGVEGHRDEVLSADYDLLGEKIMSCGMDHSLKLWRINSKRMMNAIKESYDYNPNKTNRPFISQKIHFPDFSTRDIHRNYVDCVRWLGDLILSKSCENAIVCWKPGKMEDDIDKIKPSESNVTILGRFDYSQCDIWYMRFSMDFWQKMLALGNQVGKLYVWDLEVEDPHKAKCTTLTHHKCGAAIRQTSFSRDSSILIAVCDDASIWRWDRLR
Target sequence in this assay (P40337 whole entry): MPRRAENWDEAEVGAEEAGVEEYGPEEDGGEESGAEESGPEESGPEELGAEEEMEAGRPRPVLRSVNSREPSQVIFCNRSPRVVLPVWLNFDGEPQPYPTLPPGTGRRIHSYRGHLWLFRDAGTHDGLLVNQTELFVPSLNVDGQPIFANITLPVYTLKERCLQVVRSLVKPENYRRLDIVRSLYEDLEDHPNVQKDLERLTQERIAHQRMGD
For assay [2], the system named is DB. The experiment in a line: Antiproliferative activity against human DB cells measured after 9 days by tryphan blue staining. The following applies: 216 h. The assay is classed as functional, cell-based.
Assay [3] concerns the target T2, von Hippel-Lindau disease tumor suppressor/Histone-lysine N-methyltransferase EZH2 (Homo sapiens, UniProt Q15910+P40337). The experiment in a line: Protac activity at VHL/EZH2 in human DB cells assessed as degradation of protein measured after 24 to 72 hrs by Bradford assay kit method. Type of assay: cell-based.
Target sequence in this assay (Q15910 whole entry): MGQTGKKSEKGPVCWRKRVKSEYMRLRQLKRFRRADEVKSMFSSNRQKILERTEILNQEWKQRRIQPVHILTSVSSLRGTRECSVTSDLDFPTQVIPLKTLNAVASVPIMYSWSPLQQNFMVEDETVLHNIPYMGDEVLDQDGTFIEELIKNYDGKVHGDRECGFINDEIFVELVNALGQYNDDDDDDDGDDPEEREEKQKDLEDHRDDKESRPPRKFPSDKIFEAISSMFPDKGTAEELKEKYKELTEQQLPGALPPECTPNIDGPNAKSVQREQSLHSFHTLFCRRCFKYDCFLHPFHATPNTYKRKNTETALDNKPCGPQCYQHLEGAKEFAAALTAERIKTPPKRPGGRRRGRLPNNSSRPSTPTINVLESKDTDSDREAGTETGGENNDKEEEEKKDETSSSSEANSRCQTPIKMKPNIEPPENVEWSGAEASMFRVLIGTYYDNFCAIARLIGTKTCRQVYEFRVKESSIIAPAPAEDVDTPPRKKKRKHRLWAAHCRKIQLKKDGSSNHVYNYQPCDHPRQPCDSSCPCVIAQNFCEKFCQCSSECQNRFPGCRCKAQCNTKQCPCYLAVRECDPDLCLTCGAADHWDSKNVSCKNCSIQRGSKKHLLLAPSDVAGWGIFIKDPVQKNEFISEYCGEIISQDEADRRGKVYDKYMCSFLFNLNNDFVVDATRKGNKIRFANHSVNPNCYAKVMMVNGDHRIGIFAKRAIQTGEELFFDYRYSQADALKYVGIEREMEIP
Target sequence in this assay (P40337 whole entry): as the sequence (P40337 whole entry) above
Assay [4] has as its target T3, von Hippel-Lindau disease tumor suppressor/Polycomb protein SUZ12 (Homo sapiens, UniProt Q15022+P40337). The experiment in a line: Protac activity at VHL/SUZ12 in human DB cells assessed as degradation of protein measured after 24 to 72 hrs by Bradford assay kit method. The assay is classed as cell-based.
Target sequence in this assay (Q15022 whole entry): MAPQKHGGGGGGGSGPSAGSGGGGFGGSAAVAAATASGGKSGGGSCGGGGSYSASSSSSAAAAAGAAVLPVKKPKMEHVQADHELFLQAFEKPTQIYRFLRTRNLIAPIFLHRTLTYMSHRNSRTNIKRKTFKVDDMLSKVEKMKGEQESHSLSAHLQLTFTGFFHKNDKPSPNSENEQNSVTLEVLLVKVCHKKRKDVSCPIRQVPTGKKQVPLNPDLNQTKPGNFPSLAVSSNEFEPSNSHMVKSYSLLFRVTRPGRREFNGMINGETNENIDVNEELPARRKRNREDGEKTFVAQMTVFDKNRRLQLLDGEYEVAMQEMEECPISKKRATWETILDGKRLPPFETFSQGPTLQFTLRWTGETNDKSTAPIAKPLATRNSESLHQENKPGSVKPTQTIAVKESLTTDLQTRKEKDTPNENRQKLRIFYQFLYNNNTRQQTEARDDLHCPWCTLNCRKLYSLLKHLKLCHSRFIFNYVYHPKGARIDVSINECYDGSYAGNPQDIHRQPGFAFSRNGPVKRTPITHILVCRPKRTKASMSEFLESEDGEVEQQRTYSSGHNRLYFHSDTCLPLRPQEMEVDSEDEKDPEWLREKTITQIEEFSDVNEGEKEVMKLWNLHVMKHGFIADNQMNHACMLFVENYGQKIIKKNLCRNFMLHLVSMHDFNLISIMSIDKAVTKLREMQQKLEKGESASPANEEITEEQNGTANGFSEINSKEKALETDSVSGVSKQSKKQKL
Target sequence in this assay (P40337 whole entry): as the sequence (P40337 whole entry) above
The test system of assay [5] is DB. The experiment in a line: Antiproliferative activity against human DB cells assessed as viable cells with replenishment of medium with compound for every three days upto 9 days by trypan blue staining based automated bio-rad TC20 cell counter method. Type of assay: functional.
The target of assay [6] is T1, von Hippel-Lindau disease tumor suppressor/Polycomb protein EED. The experiment in a line: Protac activity at VHL/EED in human DB cells assessed as degradation of protein measured after 24 to 72 hrs by Bradford assay kit method relative to control. The assay is classed as cell-based. As to conditions: time 24-72 hrs.
Target sequence in this assay (O75530 2-441 limits assumed): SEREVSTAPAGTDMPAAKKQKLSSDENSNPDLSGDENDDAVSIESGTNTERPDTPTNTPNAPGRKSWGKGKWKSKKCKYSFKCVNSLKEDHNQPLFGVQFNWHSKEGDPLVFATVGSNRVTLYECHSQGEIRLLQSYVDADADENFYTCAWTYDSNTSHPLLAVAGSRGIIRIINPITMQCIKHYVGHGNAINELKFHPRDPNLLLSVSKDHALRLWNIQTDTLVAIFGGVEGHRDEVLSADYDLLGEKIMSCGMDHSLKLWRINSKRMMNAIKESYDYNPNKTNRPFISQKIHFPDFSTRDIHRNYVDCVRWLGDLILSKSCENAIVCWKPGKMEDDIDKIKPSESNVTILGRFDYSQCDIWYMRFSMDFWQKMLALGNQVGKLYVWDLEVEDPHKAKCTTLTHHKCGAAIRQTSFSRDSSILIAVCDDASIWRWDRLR
Target sequence in this assay (P40337 whole entry partner): as the sequence (P40337 whole entry) above
Assay [7] concerns the target T2, von Hippel-Lindau disease tumor suppressor/Histone-lysine N-methyltransferase EZH2. The experiment in a line: Protac activity at VHL/EZH2 in human HeLa cells assessed as degradation of protein measured after 24 hrs by Bradford assay kit method. The assay is classed as cell-based.
Target sequence in this assay (Q15910 whole entry): as the sequence (Q15910 whole entry) above
Target sequence in this assay (P40337 whole entry): as the sequence (P40337 whole entry) above
Assay [8] addresses T1, von Hippel-Lindau disease tumor suppressor/Polycomb protein EED. The experiment in a line: Protac activity at VHL/EED in human DB cells assessed as degradation of protein measured after 24 to 72 hrs by Bradford assay kit method. Type of assay: cell-based.
Target sequence in this assay (O75530 whole entry): as the sequence (O75530 whole entry) above
Target sequence in this assay (P40337 whole entry): as the sequence (P40337 whole entry) above
Assay [9] has as its target T2, von Hippel-Lindau disease tumor suppressor/Histone-lysine N-methyltransferase EZH2. The experiment in a line: Protac activity at VHL/EZH2 in human DB cells assessed as degradation of protein measured after 24 to 72 hrs by Bradford assay kit method relative to control. The assay is classed as cell-based. As to conditions: time 24-72 hrs.
Target sequence in this assay (P40337 whole entry, looked up): as the sequence (P40337 whole entry) above
Target sequence in this assay (Q15910 whole entry, looked up): as the sequence (Q15910 whole entry) above
Assay [10] has as its target T3, von Hippel-Lindau disease tumor suppressor/Polycomb protein SUZ12. The experiment in a line: Protac activity at VHL/SUZ12 in human DB cells assessed as degradation of protein measured after 24 to 72 hrs by Bradford assay kit method relative to control. Type of assay: cell-based. As to conditions: time 24-72 hrs.
Target sequence in this assay (P40337 whole entry, looked up): as the sequence (P40337 whole entry) above
Target sequence in this assay (Q15022 whole entry, looked up): as the sequence (Q15022 whole entry) above
The test system of assay [11] is Pfeiffer. The experiment in a line: Antiproliferative activity against human Pfeiffer cells measured after 3 days by tryphan blue staining. Type of assay: functional, cell-based. The following applies: 72 h.
The target of assay [12] is Histone-lysine N-methyltransferase EZH2 (Homo sapiens, UniProt Q15910). The experiment in a line: Inhibition of EZH2 (unknown origin).
Assay [13] deals with T3, von Hippel-Lindau disease tumor suppressor/Polycomb protein SUZ12. The experiment in a line: Protac activity at VHL/SUZ12 in human HeLa cells assessed as degradation of protein measured after 24 hrs by […] relative to control. Type of assay: cell-based.
Target sequence in this assay (P40337 whole entry, looked up): as the sequence (P40337 whole entry) above
Target sequence in this assay (Q15022 whole entry, looked up): as the sequence (Q15022 whole entry) above
The subject of assay [14] is Pfeiffer. The experiment in a line: Antiproliferative activity against human Pfeiffer cells assessed as viable cells with replenishment of medium with compound for every three days upto 6 days by trypan blue staining based automated bio-rad TC20 cell counter method. The assay is classed as functional.

As usually defined, the DC50 is the midpoint of the concentration-degradation curve. A word on the pEC50: it is the negative decadic logarithm of the EC50, by convention in mol/L. For orientation: Emax means the size of the effect at its maximum, as opposed to the concentration needed. The term pIC50 denotes the IC50 on a negative log10 scale, so that one unit is a factor of ten. Low values mean a large IC50, high ones a small IC50.

pEC50, pIC50: −log10 of the molar value.

Histone-lysine N-methyltransferase EZH2, sequence (Q15910 whole entry): as the sequence (Q15910 whole entry) above

For the compound `Cc1ncsc1-c1ccc(CNC(=O)[C@@H]2C[C@@H](O)CN2C(=O)[C@@H](NC(=O)CCCNC(=O)c2ccc(-c3cnc(NCc4ccco4)n4cnnc34)cc2)C(C)(C)C)cc1`, the DC50 in assay [1] stood at 0.79 µM; in assay [3] it was 0.67 µM; in assay [4], 0.59 µM; in assay [7] it was 0.3 µM; in [8], 0.61 µM. The pEC50 in assay [2] was 5.47; in assay [5] it was 5.47; in assay [14] it was 6.39. Also, the Emax in assay [6] came to 94%; in assay [9], 96%; in [10] it was 82%; in [13] it was 22%. Further, the figures for the negative logarithm of the IC50 (pIC50) in assay [11] and in assay [12] were 6.39 and 6.52, respectively.
